Laboratory results: ChEMBL document CHEMBL3616373, “Identification of N-sulfonyl-tetrahydroquinolines as RORc inverse agonists” (Bioorg Med Chem Lett, 2015)
The source made the active and inactive calls. The rule behind the calls is not given here.

Assays:
PBMC [1] = test: Inhibition of IL-17 production in human PBMC after 48 hrs by Sandwich ELISA; assay type: functional, cell-based; settings: for EC50: Homo sapiens, PBMC, 48 h
[2] = target: T1, Nuclear receptor ROR-gamma (Homo sapiens) (UniProt P51449); test: Inverse agonist activity at N-terminal 6xHis-tagged human RORc ligand binding domain (241 to 486) expressed in bacterial expression system assessed as inhibition of SRC1 co-activator peptide recruitment after 3 hrs by TR-FRET analysis relative to apo-RORc ligand binding domain
T1 sequence (whole entry): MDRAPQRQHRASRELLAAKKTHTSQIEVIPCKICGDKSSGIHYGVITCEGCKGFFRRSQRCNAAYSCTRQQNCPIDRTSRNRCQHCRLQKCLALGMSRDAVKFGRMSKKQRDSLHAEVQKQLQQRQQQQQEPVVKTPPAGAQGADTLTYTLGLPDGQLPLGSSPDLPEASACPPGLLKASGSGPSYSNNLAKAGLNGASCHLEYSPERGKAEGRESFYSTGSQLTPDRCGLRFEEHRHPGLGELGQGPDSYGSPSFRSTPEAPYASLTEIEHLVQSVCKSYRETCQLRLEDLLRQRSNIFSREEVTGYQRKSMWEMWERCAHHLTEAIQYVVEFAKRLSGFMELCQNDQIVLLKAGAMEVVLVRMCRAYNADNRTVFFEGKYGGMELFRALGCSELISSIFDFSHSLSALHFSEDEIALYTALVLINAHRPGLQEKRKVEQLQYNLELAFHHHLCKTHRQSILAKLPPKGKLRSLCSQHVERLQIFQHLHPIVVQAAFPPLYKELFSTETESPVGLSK

PBMC [3] = test: Inhibition of IFNgamma production in human PBMC after 48 hrs by Sandwich ELISA; assay type: functional, cell-based
[4] = Plasma protein binding in rat at 5 uM after 4 hrs by equilibrium dialysis method; assay type: ADME, cell-free; settings: read-out: PPB
[5] = target: T2, Nuclear receptor ROR-beta (Homo sapiens, UniProt Q92753); test: Inverse agonist activity at GAL4-fused human RORb expressed in HEK293 cells assessed as suppression of basal transcriptional activity after 20 hrs by dual-glo luciferase reporter gene assay; assay type: cell-based
T2 sequence (Q92753 whole entry): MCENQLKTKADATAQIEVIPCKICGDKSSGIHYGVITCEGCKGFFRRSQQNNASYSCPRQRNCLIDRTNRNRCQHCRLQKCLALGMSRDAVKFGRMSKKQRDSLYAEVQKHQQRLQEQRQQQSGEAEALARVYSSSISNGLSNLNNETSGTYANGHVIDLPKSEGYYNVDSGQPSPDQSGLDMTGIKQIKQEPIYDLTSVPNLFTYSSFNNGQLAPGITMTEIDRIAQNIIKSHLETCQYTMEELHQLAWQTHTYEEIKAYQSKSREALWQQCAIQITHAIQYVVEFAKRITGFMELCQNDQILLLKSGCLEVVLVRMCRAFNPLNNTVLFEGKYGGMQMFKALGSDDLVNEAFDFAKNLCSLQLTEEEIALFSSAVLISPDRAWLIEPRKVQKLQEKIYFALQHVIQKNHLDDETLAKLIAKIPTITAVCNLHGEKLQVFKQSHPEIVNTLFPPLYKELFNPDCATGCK

[6] = target: T3, Oxysterols receptor LXR-beta (Homo sapiens) (UniProt P55055); test: Agonist activity at GAL4-fused human LXRbeta expressed in HEK293 cells assessed as activation of basal transcriptional activity up to 10 uM after 20 hrs by dual-glo luciferase reporter gene assay; assay type: cell-based
T3 sequence (whole entry): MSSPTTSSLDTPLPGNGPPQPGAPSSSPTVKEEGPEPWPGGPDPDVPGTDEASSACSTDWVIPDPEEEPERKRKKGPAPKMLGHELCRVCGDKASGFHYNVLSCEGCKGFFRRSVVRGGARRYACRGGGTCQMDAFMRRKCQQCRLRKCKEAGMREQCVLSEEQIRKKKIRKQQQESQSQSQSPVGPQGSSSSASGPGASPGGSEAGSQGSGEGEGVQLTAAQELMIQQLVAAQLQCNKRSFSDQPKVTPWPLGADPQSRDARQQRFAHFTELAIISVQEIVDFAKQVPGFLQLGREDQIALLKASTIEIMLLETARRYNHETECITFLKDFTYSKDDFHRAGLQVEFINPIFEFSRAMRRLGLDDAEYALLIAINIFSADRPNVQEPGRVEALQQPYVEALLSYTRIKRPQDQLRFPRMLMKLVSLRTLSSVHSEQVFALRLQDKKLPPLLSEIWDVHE

PBMC [7] = test: Cytotoxicity against human PBMC assessed as effect on cell physiology after 48 hrs by CellTiter-Glo assay; assay type: cell-based
HEK293 [8] = test: Selectivity ratio of EC50 for GAL4-fused human FXR expressed in HEK293 cells to EC50 for GAL4-fused human RORc expressed in HEK293 cells; assay type: cell-based
HEK293 [9] = test: Selectivity ratio of EC50 for GAL4-fused human RORb expressed in HEK293 cells to EC50 for GAL4-fused human RORc expressed in HEK293 cells; assay type: cell-based
[10] = target: Nuclear receptor ROR-alpha (→); test: Inverse agonist activity at GAL4-fused human RORa expressed in HEK293 cells assessed as suppression of basal transcriptional activity after 20 hrs by dual-glo luciferase reporter gene assay
HEK293 [11] = test: Selectivity ratio of EC50 for GAL4-fused human LXRalpha expressed in HEK293 cells to EC50 for GAL4-fused human RORc expressed in HEK293 cells; assay type: cell-based
MDCK = test: Efflux ratio of apparent permeability across apical to basolateral side over basolateral to apical side in MDCK cells at 100 uM after 60 mins by HPLC analysis; assay type: ADME, cell-based, Canis lupus familiaris; settings: dog, 1 h
HEK293 [12] = test: Selectivity ratio of EC50 for GAL4-fused human LXRbeta expressed in HEK293 cells to EC50 for GAL4-fused human RORc expressed in HEK293 cells; assay type: cell-based
[13] = target: T4, Nuclear receptor ROR-gamma (Homo sapiens, UniProt P51449); test: Inverse agonist activity at N-terminal 6xHis-tagged human RORc ligand binding domain (241 to 486) expressed in bacterial expression system assessed as inhibition of SRC1 co-activator peptide recruitment after 3 hrs by TR-FRET analysis; assay type: functional
T4 sequence (P51449 whole entry): T1 sequence (whole entry)

HEK293 [14] = test: Selectivity ratio of EC50 for GAL4-fused human PXR expressed in HEK293 cells to EC50 for GAL4-fused human RORc expressed in HEK293 cells; assay type: cell-based
HEK293 [15] = test: Selectivity ratio of EC50 for GAL4-fused human RORa expressed in HEK293 cells to EC50 for GAL4-fused human RORc expressed in HEK293 cells; assay type: cell-based
[16] = target: Nuclear receptor ROR-gamma; test: Inverse agonist activity at GAL4-fused human RORc expressed in HEK293 cells assessed as suppression of basal transcriptional activity after 20 hrs by dual-glo luciferase reporter gene assay

Efficacy [2]	fraction unbound at 4 h, 5 µM [4]	EC50 [5]	Activity [6]	EC50 [10]	Ratio (MDCK)	EC50 [13]	EC50 [16]	Compound	%max (PBMC [1])	EC50 (PBMC [1])	EC50 (PBMC [3])	EC50 (PBMC [7])	Ratio EC50 (HEK293 [8])	Ratio EC50 (HEK293 [9])	Ratio EC50 (HEK293 [11])	Ratio EC50 (HEK293 [12])	Ratio EC50 (HEK293 [14])	Ratio EC50 (HEK293 [15])
-89%	< 0.01	3.4 µM	inactive					O=C(Nc1ccc2c(c1)N(S(=O)(=O)c1ccc(F)cc1)CCC2)c1c(F)cccc1Cl	63%	2.1 µM	> 20 µM	> 20 µM						
-89%	< 0.01	4.1 µM	inactive					O=C(Nc1ccc2c(c1)N(S(=O)(=O)c1ccc(F)cc1)CCC2)c1ccccc1Cl										
-99%	0.01	5.4 µM	inactive					O=C(Nc1ccc2c(c1)N(S(=O)(=O)c1ccc(F)cc1)CCC2)c1c(F)cccc1F	78%	1.4 µM	> 20 µM	> 20 µM						
-99%	0.01	7.9 µM	inactive	12 µM	< 2	0.086 µM	0.28 µM	O=C(Nc1ccc2c(c1)N(S(=O)(=O)c1ccc(F)cc1)CC2)c1c(F)cccc1F					15	28	15	15	15	28
